{"source": "patent US20240122941A1", "about": "“THERAPY BASED ON SYNTHETIC LETHALITY IN SWI/SNF COMPLEX-DYSFUNCTION CANCER” (NATIONAL CANCER CENTER, priority 2020, published 2024)", "key": {"[1]": {"tested_on": "H23 cells (pulmonary adenocarcinoma derived, SMARCA2/A4 deficient)", "experiment": "Cell growth suppression experiment (CellTiter-Glo), H23 cells;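 further: compounds tested as CBP/P300 agents, added one day after plating in 96-well plates with DMEM-F12 plus 10% fetal bovine serum, 0.1% DMSO final, luminescent viability read-out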", "type": "cell-based", "settings": "cultured for 6 days, CellTiter-Glo"}, "[2]": {"tested_on": "DMS114 cells (small cell lung cancer derived, SMARCA2/A4 deficient)", "experiment": "Cell growth suppression experiment (CellTiter-Glo), DMS114 cells", "type": "cell-based", "settings": "DMS114 cells, cultured for 6 days, CellTiter-Glo"}, "[3]": {"tested_on": "TOV112D cells (small cell ovarian cancer derived, SMARCA2/A4 deficient)", "experiment": "Cell growth suppression experiment (CellTiter-Glo), TOV112D cells;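 further: luminescent viability read-out of TOV112D cells grown in DMEM-F12 with 10% fetal bovine serum, compound exposure starting one day after plating, DMSO at 0.1% final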", "type": "cell-based", "settings": "cultured for 6 days, CellTiter-Glo"}, "[4]": {"tested_on": "H460 cells (pulmonary adenocarcinoma derived, SMARCA2/A4 wild-type)", "experiment": "Cell growth suppression experiment (CellTiter-Glo), H460 cells;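 further: luminescent viability read-out, compound added one day after seeding at 0.1% final DMSO, cells grown in DMEM-F12 with 10% fetal bovine serum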", "type": "cell-based", "settings": "for IC50: cultured for 6 days, CellTiter-Glo"}, "[5]": {"tested_on": "H1693 cells (pulmonary adenocarcinoma derived, SMARCA4 deficient)", "experiment": "Cell growth suppression experiment (CellTiter-Glo), H1693 cells", "type": "cell-based", "settings": "Homo sapiens, NCI-H1693, 72 h, cultured for 3 days", "procedure": "(§1) Cytotoxic activity of a CBP/P300 inhibitor on SMARCA4 deficient cells, i.e., H1693 cells (pulmonary adenocarcinoma derived) and H1819 cells (pulmonary adenocarcinoma derived), and SMARCA4 wild-type cells, i.e., H647 cells.\n(§2) H1693 cells, H1819 cells, and H647 cells were obtained from the ATCC. The H1693 cells and H647 cells were cultured under 5% CO 2 conditions at 37° C. in a 10% fetal bovine serum and 1% penicillin/streptomycin-containing RPMI1640 medium. H1819 cells were cultured under 5% CO2 conditions at 37° C. in a 5% fetal bovine serum and 1% penicillin/streptomycin-containing RPMI1640 medium.\n(§3) A 384-well plate was seeded with 500 cells per well. […] After completion of culture, the cell survival rate was measured using CellTiter-Glo Luminescent Cell Viability Assay (Promega, G7570)."}, "[6]": {"tested_on": "H1819 cells (pulmonary adenocarcinoma derived, SMARCA4 deficient)", "experiment": "Cell growth suppression experiment (CellTiter-Glo), H1819 cells", "type": "cell-based", "settings": "NCI-H1819, 72 h, cultured for 3 days", "procedure": "as §1, §2, §3"}, "[7]": {"tested_on": "H647 cells (SMARCA4 wild-type)", "experiment": "Cell growth suppression experiment (CellTiter-Glo), H647 cells", "type": "cell-based", "procedure": "as §1, §2, §3"}, "[8]": {"tested_on": "SMARCA2/A4 deficient cells, i.e., H23 cells, DMS114 cells, and TOV112D cells", "experiment": "Cell growth suppression experiment, SMARCA2/A4 deficient cells (summary of Example 8)", "type": "cell-based", "settings": "H23, DMS114 and TOV112D cells versus H460 cells; result in words", "procedure": "Cytotoxic activity of a CBP/P300 on SMARCA2/A4 deficient cells, i.e., H23 cells (pulmonary adenocarcinoma derived), TOV112D cells (small cell ovarian cancer derived), and DMS114 cells (small cell lung cancer derived), and SMARCA2/A4 wild-type cells, i.e., H460 cells (pulmonary adenocarcinoma derived) was compared.\nH23 cells, TOV112D cells, DMS114 cells, and H460 cells were cultured under 5% CO2 conditions at 37° C. in a 10% fetal bovine serum and 1% penicillin/streptomycin-containing DMEM-F12 medium.\nCells were seed on a 96-well plate at 250 to 500 cells per well. […] After completion of culture, the cell survival rate was measured using CellTiter-Glo Luminescent Cell Viability Assay (Promega, G770)."}, "[9]": {"tested_on": "ARID1 deficient cancer cell group versus ARID1 wild-type cell group", "experiment": "Experiment comparing sensitivity depending on the presence/absence of ARID1", "type": "cell-based", "settings": "6 days culture, CellTiter-Glo, FIG. 12; result in words", "from_the_text": "Cytotoxic activity of a CBP/P300 inhibitor on ARID1 deficient cancer cells, i.e., A2780 cells (ovarian cancer derived), RMG-V cells (ovarian cancer derived), TOV21G cells (ovarian cancer derived), and OVISE cells (ovarian cancer derived), and ARID1 wild-type cells, i.e., H1048 cells, H460 cells, 786-O cells, H2228 cells, H2009 cells, and H358 cells, was compared."}, "[10]": {"tested_on": "SMARCA4 deficient cells, i.e., H1693 cells and H1819 cells", "experiment": "Cell growth suppression experiment, SMARCA4 deficient cells (summary of Example 11)", "type": "cell-based", "settings": "result in words", "procedure": "as §1, §2, §3"}, "[11]": {"tested_on": "JMU-RTK-2 cells (malignant rhabdoid tumor derived, SMARCB1 deficient)", "experiment": "Selectivity in cell growth suppression, JMU-RTK-2 cells", "settings": "read-out: JMU-RTK-2 IC50"}, "[12]": {"tested_on": "G-401 cells (malignant rhabdoid tumor derived, SMARCB1 deficient)", "experiment": "Cell growth suppression experiment (CellTiter-Glo), G-401 cells", "settings": "read-out: IC50 G-401"}, "[13]": {"tested_on": "786-O cells (renal cancer derived, SMARCB1 wild-type)", "experiment": "Cell growth suppression experiment (CellTiter-Glo), 786-O cells", "settings": "for IC50: read-out: IC50 786-O"}, "[14]": {"tested_on": "JMU-RTK-2+SMARCB1 cells (JMU-RTK-2 cells overexpressing SMARCB1)", "experiment": "Selectivity in cell growth suppression, JMU-RTK-2+SMARCB1 cells", "settings": "read-out: JMU-RTK-2 + SMARCB1 IC50"}, "[15]": {"tested_on": "CHLA-06-ATRT cells (atypical teratoid/rhabdoid tumor derived, SMARCB1 deficient)", "experiment": "Cell growth suppression experiment (CellTiter-Glo), CHLA-06-ATRT cells", "settings": "72 h, read-out: IC50 CHLA-06-ATRT"}, "[16]": {"tested_on": "SMARCB1 deficient cells, i.e., G-401 cells, G-402 cells, and CHLA-06-ATRT cells", "experiment": "Cell growth suppression experiment, SMARCB1 deficient cells (summary of Example 1)", "settings": "G-401, G-402 and CHLA-06-ATRT cells versus 786-O cells; result in words"}, "[17]": {"tested_on": "SMARCB1 deficient cell group versus SMARCB1 wild-type cell group", "experiment": "Experiment comparing sensitivity depending on the presence/absence of SMARCB1", "type": "cell-based", "settings": "6 days culture, CellTiter-Glo, FIG. 3; result in words", "from_the_text": "Cytotoxic activity of a CBP/P300 inhibitor on SMARCB1 deficient cells, i.e., G-401 cells (malignant rhabdoid tumor derived), G-402 cells (malignant rhabdoid tumor derived), JMU-RTK-2 cells (malignant rhabdoid tumor derived), and HS-EU-1 cells (epithelioid sarcoma derived), and SMARCB1 wild-type cells, i.e., 786-O cells (renal cancer derived), VMRC-RCZ cells (renal cancer derived), Caki-1 cells (renal cancer derived), H446 cells (lung cancer derived), ES2 cells (ovarian cancer derived), H460 cells (lung cancer derived), H2228 cells (lung cancer derived), HEK293T cells (normal kidney tissue derived), and H358 cells (lung cancer derived) was compared."}, "[18]": {"tested_on": "G-402 cells (malignant rhabdoid tumor derived, SMARCB1 deficient)", "experiment": "Cell growth suppression experiment (CellTiter-Glo), G-402 cells", "settings": "Homo sapiens, G-402, 72 h, read-out: IC50 G-402"}}, "note": "Like-named read-outs stand apart in the source and are kept apart here."}
{"compound": "CNC(=O)Cn1cc(-c2ccc3c(c2)C(F)CC32NC(=O)N(CC(=O)N(Cc3ccc(F)cc3)[C@@H](C)C(F)(F)F)C2=O)cn1", "note": "(single isomer, unassigned) [Compound 4]", "values": [{"measurement": "IC50", "setting": "[1]", "value": 248, "unit": "nM"}, {"measurement": "IC50", "setting": "[2]", "value": 37.4, "unit": "nM"}, {"measurement": "IC50", "setting": "[3]", "value": 142, "unit": "nM"}, {"measurement": "cell survival rate (%) at treatment with 10 μM, H460", "setting": "[4]; 10 μM, 6 days", "value": 78, "unit": "%"}, {"measurement": "IC50", "setting": "[4]", "value": "> 10000", "unit": "nM"}, {"measurement": "IC50", "setting": "[5]", "value": 128, "unit": "nM"}, {"measurement": "IC50", "setting": "[6]", "value": 5330, "unit": "nM"}, {"measurement": "cell survival rate (%) at treatment with 10 μM, H647", "setting": "[7]; H647 cells, 10 μM, 3 days", "value": 60, "unit": "%"}, {"measurement": "IC50", "setting": "[7]; Homo sapiens, NCI-H647, 72 h, H647 cells, cultured for 3 days, CellTiter-Glo", "value": "> 10000", "unit": "nM"}, {"measurement": "cell growth suppression effect on SMARCA4 expressing H647 cells", "setting": "[7]; result in words", "value": "hardly any cell growth suppression effect"}, {"measurement": "cell growth suppression effect on SMARCA2/A4 deficient cells", "setting": "[8]", "value": "particularly selective and potent cell growth suppression effect"}, {"measurement": "IC50 value for the ARID1 deficient cancer cell group compared with the ARID1 wild-type cell group", "setting": "[9]", "value": "less than the IC50 value for the ARID1 wild-type cell group"}, {"measurement": "cell growth suppression effect on SMARCA4 deficient cells", "setting": "[10]", "value": "selective and potent cell growth suppression effect"}, {"measurement": "IC50", "setting": "[11]; JMU-RTK-2 cells, cultured for 6 days, CellTiter-Glo", "value": 9.9, "unit": "nM"}, {"measurement": "IC50", "setting": "[12]; G-401 cells, cultured for 3 days, CellTiter-Glo cell survival", "value": 18, "unit": "nM"}, {"measurement": "cell survival rate (%) at treatment with 10 μM, 786-O", "setting": "[13]; 786-O cells, 10 μM (maximum treatment concentration), 3 days", "value": 93, "unit": "%"}, {"measurement": "IC50", "setting": "[13]; 786-O cells, cultured for 3 days, CellTiter-Glo cell survival", "value": "> 10000", "unit": "nM"}, {"measurement": "IC50", "setting": "[14]; JMU-RTK-2+SMARCB1 cells, cultured for 6 days, CellTiter-Glo", "value": 1400, "unit": "nM"}, {"measurement": "IC50", "setting": "[15]", "value": 180, "unit": "nM"}, {"measurement": "cell growth suppression effect on SMARCB1 deficient cells", "setting": "[16]", "value": "selective and potent Cell growth suppression effect"}]}
{"compound": "CNC(=O)Nc1ccc2c(c1)CC[C@]21OC(=O)N(CC(=O)N(Cc2ccc(F)cc2)[C@@H](C)C(F)(F)F)C1=O", "note": "[Compound 16]", "values": [{"measurement": "IC50", "setting": "[1]; Homo sapiens, NCI-H23, 144 h", "value": 867, "unit": "nM"}, {"measurement": "IC50", "setting": "[2]; Homo sapiens, DMS-114, 144 h", "value": 280, "unit": "nM"}, {"measurement": "IC50", "setting": "[3]; Homo sapiens, 144 h", "value": 435, "unit": "nM"}, {"measurement": "viability at 10 µM", "setting": "[4]; Homo sapiens, NCI-H460, 144 h, 10 μM, 6 days, read-out: cell survival rate (%) at treatment with 10 μM, H460", "value": 62, "unit": "%"}, {"measurement": "IC50", "setting": "[4]; Homo sapiens, NCI-H460, 144 h", "value": "> 10000", "unit": "nM"}, {"measurement": "IC50 value for the SMARCB1 deficient cell group compared with the SMARCB1 wild-type cell group", "setting": "[17]", "value": "less than the IC50 value for the SMARCB1 wild-type cell group"}, {"measurement": "cell growth suppression effect on SMARCA2/A4 deficient cells", "setting": "[8]", "value": "particularly selective and potent cell growth suppression effect"}, {"measurement": "IC50 value for the ARID1 deficient cancer cell group compared with the ARID1 wild-type cell group", "setting": "[9]", "value": "less than the IC50 value for the ARID1 wild-type cell group"}, {"measurement": "IC50", "setting": "[11]; 144 h", "value": 130, "unit": "nM"}, {"measurement": "IC50", "setting": "[12]; Homo sapiens, G-401, 72 h", "value": 350, "unit": "nM"}, {"measurement": "IC50", "setting": "[18]", "value": 8900, "unit": "nM"}, {"measurement": "IC50", "setting": "[13]; Homo sapiens, 786-0, 72 h", "value": "> 10000", "unit": "nM"}, {"measurement": "viability at 10 µM", "setting": "[13]; Homo sapiens, 786-0, 72 h, read-out: cell survival rate (%) at treatment with 10 μM, 786-O", "value": 94, "unit": "%"}, {"measurement": "IC50", "setting": "[14]; 144 h", "value": 13000, "unit": "nM"}, {"measurement": "cell growth suppression effect on SMARCB1 deficient cells", "setting": "[16]", "value": "selective and potent Cell growth suppression effect"}]}
